The text below walks through data of patent US10844102B2, “Peptides, compositions, and methods for stimulating subcutaneous adipogenesis” (The Regents of the University of California, priority 2014, dated 2020).

Entries after “also recorded” stand apart in the source; their conditions may differ.

Experiment [1] deals with adipogenesis. The experiment is described as follows: Adipogenic activity of peptides and peptide fragments, assay not specified. Type of experiment: cell-based. As to conditions: assay not specified. How it is done: In the second approach, a series of truncations and alanine mutagenesis on peptide B were performed in order to identify the smallest active sequence. Fragments of peptide B were prepared and assayed for adipogenesis. First, fragments corresponding to the two halves of peptide B were prepared (KLKDENS (SEQ ID NO: 8) and SQLKSEVSK (SEQ ID NO: 13)).

The test system of experiment [2] is rat mesenchymal stem cells. Briefly: Assay 1: adipogenesis, Oil Red O staining (transdifferentiation of fibroblast lineages into adipocytes). Type of experiment: cell-based. As to conditions: for adipogenesis quantified by Oil Red O staining, fold change relative to the negative control: Assay 1, three weeks. How it is done: Reagents: (1) 3-isobutyl-1-methylxanthine (IBMX) solution: 0.5M in DMSO; (2) Insulin Solution: 10 mg/mL recombinant human insulin; (3) Dexamethasone Solution in 10 mM in ethanol; (4) Oil Red O (0.36% in 60% isopropanol).
Adipogenesis Initiation Media: mesenchymal stem cell expansion media/0.5 mM IBMX/1 μM dexamethasone. Mesenchymal stem cell expansion media is commercially available from Millipore. The IBMX Solution was diluted 1:1000 and the Dexamethasone Solution was diluted 1:10,000 in expansion media containing antibiotics and antimycotics. The prepared media was stored at 4° C.
Adipogenesis Progression Media for positive control: mesenchymal stem cell expansion media/10 μg/mL insulin. The Insulin Solution was diluted 1:1000 in the expansion media and stored at 4° C.
Experimental Adipogenesis Progression Media: mesenchymal stem cell expansion media/1-100 μg/mL RHAMM antagonist peptides.
Adipogenesis Maintenance Media: mesenchymal stem cell expansion media containing antibiotics and antimycotics.
Negative Control Media: Dulbecco's Modified Eagle's Medium (DMEM)/10% normal calf serum.
Pre-adipocyte stem cells including bone marrow mesenchymal stem cells and fibroblasts were propagated using standard tissue culture methods. Cells were trypsinized to remove the cells from the substratum. The trypsin was neutralized and cells were counted using a hemocytometer. Cells were resuspended at 20,000 cells/mL in expansion media. 1 mL of cell suspension was plated per well of 48-well plate, with several wells left empty for blank well (blank control) staining.
Cells were incubated until they reached confluency. When cells were fully confluent, the expansion media was replaced with 0.5 mL of Adipogenesis Initiation Media. For negative controls (no insulin, no peptides), expansion media only was used at this step and for subsequent media changes. For all media changes, media was replaced as gently as possible to avoid disturbing the monolayer.
Cells were incubated in Adipogenesis Initiation Media for 72 hours at 37° C., 5% CO2. 0.5 mL media was then removed from each well, and replaced with 0.5 mL of either positive control or experimental Adipogenesis Progression Media per well. Cells were again incubated for 96 hours at 37° C., 5% CO2, after which time media was replaced every 48 hours with Adipogenesis Maintenance Media (0.5 mL of media was removed from each well and replaced with 0.5 mL Adipogenesis Maintenance Media per well). Media added to empty wells served as blank controls for blank well background staining. Cells were incubated in Adipogenesis Maintenance Medium for at least 96 hours at 37° C., 5% CO2 after which time media was replaced with Adipogenesis Maintenance Medium. Lipid droplets had appeared by the time Adipogenesis Maintenance Medium was initially added and continued to accumulate and increase in size for 7-14 days. Experiments were terminated between seven and fourteen days after the initial addition of Adipogenesis Maintenance Medium.
For quantification of Oil Red O staining, media was removed and cells were washed twice with PBS, using care to gently add the PBS. Cells were then fixed in 4% paraformaldehyde (0.5 mL/well) and incubated for 30 minutes. The fixation solution was then removed and wells were washed two times with 1 mL of phosphate buffered saline (PBS) and once with 1 mL Milli-Q water. 0.25 mL Oil Red O solution was added per well of 48-well plate, including to the wells lacking cells, but containing media. Cells were incubated for 15 minutes at room temperature. The staining solution was then removed and wells were washed two times with 1 mL of Milli-Q water and once with washing solution (63% isopropanol in water).
Adipogenesis was quantified using a spectrophotometer. 0.25 mL Dye Extraction Solution (isopropyl alcohol) was added per well, and the plate was set on an orbital shaker or platform rocker for 30 minutes. […]

Experiment [3] has as its system rat mesenchymal stem cells. The experiment is described as follows: Assay 2: adipogenesis, Oil Red O staining (differentiation of pre-adipocytes into adipocytes). Type of experiment: cell-based. As to conditions: for adipogenesis quantified by Oil Red O staining, fold change relative to the negative control: Assay 2, three weeks; for adipogenic activity in Assay 2: Assay 2, Oil Red O, concentration not given. How it is done:
Reagents: The Dexamethasone, IBMX, Insulin, and Oil Red O Solutions were the same as described above for assay 1. Indomethacin Solution contained 10 mM indomethacin in methanol.
Adipogenesis Maintenance Media was prepared as described above.
Adipogenesis Induction Media: To prepare 501.5 mL of Adipogenesis Induction Media, 50 μL of the 10 mM stock Dexamethasone Solution, 500 μL of the 0.5 M IBMX stock solution, 500 μL of the 10 mg/ml stock Insulin Solution, 5 ml of a 10 mM stock Indomethacin Solution, and 5 mL of a 100× stock solution of penicillin and streptomycin were added to 490 mL of mesenchymal stem cell expansion media.
Pre-adipocyte stem cells, bone marrow mesenchymal stem cells or fibroblasts such as dermal reticular and papillary fibroblasts were propagated using standard tissue culture methods. Cells were trypsinized to remove cells from the substratum, the trypsin was neutralized, and cells were counted using a hemocytometer. Cells were resuspended at 20,000 cells/ml in DMEM containing 10% calf serum. 1 mL of cell suspension per well was plated in a 48-well plate, with several wells left empty for blank well (blank control) staining.
Cells were incubated for 2 days overnight and had reached confluency at this point. Media was removed from each well and replaced with 0.5 ml Adipogenesis Induction Media. For negative control (no insulin, no peptide) wells, expansion medium only was used at this step and for subsequent media changes. For all media changes, media was replaced as gently as possible to avoid disturbing the monolayer.
Cells were incubated for 72 hours at 37° C., 5% CO2. Media was removed and replaced with 0.5 ml of Adipogenesis Maintenance Media containing either RHAMM antagonist peptides (experimental group) or insulin (concentration as in the Adipogenesis Induction Media and used as a positive control). Cells were incubated for at least 96 hours in this media at 37° C., 5% CO2. Media was replaced every 48 hours and experiments were terminated between seven and fourteen days after addition of insulin or peptides.
Media was removed and Oil Red O staining was performed as described above for assay 1.
Assay 1 is an assay that promotes transdifferentiation of fibroblasts into adipocytes, whereas Assay 2 promotes differentiation of multi-potential mesenchymal progenitor cells into adipocytes. Immortalized rat bone marrow mesenchymal stem cells were used for both assays. These cells contain cells of different lineages, including fibroblasts, pre-adipocytes, pre-chondrocytes and pre-osteoblasts. Thus, Assay 1 was used to promote transdifferentiation of fibroblast lineages into adipocytes and Assay 2 was used to promote differentiation of the pre-adipocytes into adipocytes.
As described in Example 1 above, the priming stimulus for Assay 1 includes IBMX (3-isobutyl-1-methylxanthine) and dexamethasone, and then insulin as the final adipogenic stimulus. The priming stimulus for assay 2 includes IBMX, dexamethasone and indomethacin, and then insulin as the final adipogenic stimulus.
Adipogenesis was quantified by Oil Red O staining. The peptide was tested at concentrations of 5 and 50 μg/ml over a period of three weeks. Cells were plated in 48-well culture plates, and the purity of the peptides was >95%. All data are presented as the fold change relative to the negative control (Ctr(−))±standard error. The KSEVSK 6-mer (SEQ ID NO: 7) was used as a positive control.

In experiment [4] the test system is 3T3L cells. The experiment is described as follows: Adiponectin ELISA on supernatant medium of primed 3T3L cells. Type of experiment: cell-based, mouse. Particulars: 10 μg/ml peptide, versus no insulin control. How it is done: 3T3L cells were cultured in T75 culture flasks, in expansion medium (Millipore Corporation), and stored in a 5% CO2 humidified incubator at 37° C. Media was changed every two days until the cells reached 80% confluency. Cells were subcultured in a 96 well plate with a seeding density of 3×10^4 cells per cm^2.
Once cells had just reached confluency, expansion media was replaced with 0.5 mL of Adipogenic Induction Media per well containing 5% serum that had been screened for an ability to maintain stem cells in an undifferentiated state (LifeTechnologies). Cells were incubated for 48 hours at 37° C., 5% CO2. The Adipogenic Induction Media contained DMEM (low glucose, Gibco) +5% serum (LifeSciences) with 0.5 mM IBMX solution, 1 μM Dexamethasone Solution, and 100 μM Indomethacin Solution (priming stimulus). After 48 hr the Adipogenic Induction media was replaced with new media containing 10 μg/ml insulin alone (positive control), or 10 μg/ml peptide (experimental conditions). Negative controls were DMEM +5% serum only. Plates were incubated for two days prior to adiponectin ELISA analyses. Peptides were added daily at 10 μg/ml throughout the remainder of the experiment.
Adiponectin present in the supernatant medium was measured using a mouse adiponectin ELISA (Novex, LifeTechnologies). Briefly, supernatant medium was collected and diluted 1:100. One hundred microliters of the diluted supernatant medium was added to each well of the ELISA plate and incubated for one hour at 37° C. Wells were washed three times with 1× wash buffer and then 100 μl of antibody was added to each well and incubated for one hour at 37° C. The wells were then washed and incubated with 100 μl detector antibody for 1 hr at 37° C. The wells were washed five times with wash buffer and 100 μl of substrate solution was added to each well and incubated for twenty minutes in the dark. The reaction was then stopped by the addition of 100 μl stop solution. Plates were read at 450 nm and concentrations of adiponectin were derived from a standard curve included in the ELISA plate.
Insulin and the KSEVSK peptide (SEQ ID NO: 7) served as positive controls. […] In FIG. 7, values marked by asterisks represent significant changes relative to the no insulin control (i.e., the negative control) using a two-tailed Student's T test, p<0.05.

The conditions of experiment [5]: earlier reports, background and U.S. Pat. No. 6,271,344; cited from earlier work.
For experiment [6], the system named is mesenchymal stem cell. Particulars: commercially available mesenchymal stem cell kit; as described in WO 2014/082042; cited from earlier work.

As to SQLKSEVSK (listed as Homo sapiens), the adipogenic activity result in experiment [1] is given as “found to be adipogenic”.

Take KLKDENS (listed as Homo sapiens): the adipogenic activity entry in experiment [1] is on record as “did not exhibit adipogenic activity; also recorded: lack adipogenic activity”.

Consider KLKDENSQ (listed as Homo sapiens), for which the “adipogenesis quantified by Oil Red O staining, fold change relative to the negative control” value in experiment [2] (peptide 5 μg/ml), in experiment [2] (peptide 50 μg/ml), in experiment [3] (peptide 5 μg/ml) and in experiment [3] (peptide 50 μg/ml) was “significant adipogenic effect” throughout. Further, the adipogenic activity entry in experiment [1] is “are adipogenic”.

As for STMMSRSHK, the adipogenic activity result in experiment [1] is on record as “found to have adipogenic activity”.

Turning to “KTSSHHV (listed as Arabidopsis thaliana)”, the “adipogenic activity in the adiponectin assay (adiponectin secretion)” value in experiment [4] was “lack an ability to promote adipogenesis”.

KTRSHHV: in experiment [2] (peptide 5 μg/ml), the “adipogenesis quantified by Oil Red O staining, fold change relative to the negative control” value is on record as “significant increase in adipogenesis”. Besides, in experiment [3], the “adipogenic activity in Assay 2” value was “not in assay 2”. Moreover, in experiment [1], the adipogenic activity entry is “has adipogenic activity; also recorded: is adipogenic”.

With KLQEELNKV (Ovis aries), the “adipogenesis quantified by Oil Red O staining, fold change relative to the negative control” value in experiment [2] (peptide 5 μg/ml) was “significantly increased adipogenesis”; in experiment [2] (peptide 50 μg/ml) it was “significantly increased adipogenesis”; in experiment [3] (peptide 5 μg/ml), “only observed when a concentration of 50 μg/ml was used”; in experiment [3] (peptide 50 μg/ml), “significantly increased adipogenesis”.

LKSEVSK (listed as Homo sapiens): in experiment [1], the adipogenic activity result is “also found to be adipogenic”.

In the case of STMMSRSHKTRSCHH, the “binding to hyaluronan (HA)” value in experiment [5] is listed as “binds to HA”.

For “KTRSHHI (listed as Monodelphis domestica)”, in experiment [2] (Assay 1, Oil Red O, concentration not given), the “adipogenic activity in Assay 1” value is reported as “ablated adipogenic activity”. In addition, the “adipogenic activity in Assay 2” value in experiment [3] is reported as “ablated adipogenic activity”.

B1: 114 amino acid protein fragment: RHAMM carboxy-terminal sequence from mouse RHAMM produced as a recombinant protein (protein, listed as Mus musculus)
chain: LDAFEAEKQALLNEHGATQEQLNKIRDSYAQLLGHQNLKQKIKHVVKLKDENSQLKSEVSKLRSQLVKRKQNELRLQGELDKALGIRHFDPSKAFCHASKENFTPLKEGNPNCC
With B1, the adipogenesis entry in experiment [6] is listed as “promoted adipogenesis”.
